Source: paper PMC5739597, “Discovery and evaluation of triple inhibitors of VEGFR-2, TIE-2 and EphB4 as anti-angiogenic and anti-cancer agents” (Oncotarget, 2017)

How the values were obtained:
TIE-2 = TIE-2 (Homo sapiens, UniProt Q02763); test: ADP-Glo in vitro RTK inhibition assay, TIE-2; format: biochemical; conditions: ATP 50 μM
Protocol: (§1) In order to validate the direct effect of title compounds on VEGFR-2, Tie-2, and EphB4 kinases, we performed in vitro assay using the ADP-Glo Kinase Assay Kit (Promega, Wisconsin, USA).
(§2) The kinase assay was performed in a reaction mixture of final volume of 10 μL. […] The plate was incubated at 30°C for 1 h. After the plate was cooled at room temperature for 5 min, 5 μL of ADP-Glo reagent was added into each well to stop the reaction and consume the remaining […] within 40 min. At the end, 10 μL of kinase detection reagent was added into the well and incubated for 30 min to produce a luminescence signal. […] The assay plate was incubated at 30°C for 4 h. After the plate was cooled at room temperature for 5 min, 5 μL of ADP-Glo reagent was added into each well to stop the reaction and consume the remaining […] within 1 h. At the end, 10 μL of kinase detection reagent was added into each well and incubated for 30 min to produce a luminescence signal. The luminescence was read by VICTOR-X multi-label plate reader.

EphB4 = target: T1, EphB4 (Homo sapiens, UniProt P54760); test: ADP-Glo in vitro RTK inhibition assay, EphB4; format: biochemical; conditions: ATP 50 μM
T1 sequence (P54760 16-987): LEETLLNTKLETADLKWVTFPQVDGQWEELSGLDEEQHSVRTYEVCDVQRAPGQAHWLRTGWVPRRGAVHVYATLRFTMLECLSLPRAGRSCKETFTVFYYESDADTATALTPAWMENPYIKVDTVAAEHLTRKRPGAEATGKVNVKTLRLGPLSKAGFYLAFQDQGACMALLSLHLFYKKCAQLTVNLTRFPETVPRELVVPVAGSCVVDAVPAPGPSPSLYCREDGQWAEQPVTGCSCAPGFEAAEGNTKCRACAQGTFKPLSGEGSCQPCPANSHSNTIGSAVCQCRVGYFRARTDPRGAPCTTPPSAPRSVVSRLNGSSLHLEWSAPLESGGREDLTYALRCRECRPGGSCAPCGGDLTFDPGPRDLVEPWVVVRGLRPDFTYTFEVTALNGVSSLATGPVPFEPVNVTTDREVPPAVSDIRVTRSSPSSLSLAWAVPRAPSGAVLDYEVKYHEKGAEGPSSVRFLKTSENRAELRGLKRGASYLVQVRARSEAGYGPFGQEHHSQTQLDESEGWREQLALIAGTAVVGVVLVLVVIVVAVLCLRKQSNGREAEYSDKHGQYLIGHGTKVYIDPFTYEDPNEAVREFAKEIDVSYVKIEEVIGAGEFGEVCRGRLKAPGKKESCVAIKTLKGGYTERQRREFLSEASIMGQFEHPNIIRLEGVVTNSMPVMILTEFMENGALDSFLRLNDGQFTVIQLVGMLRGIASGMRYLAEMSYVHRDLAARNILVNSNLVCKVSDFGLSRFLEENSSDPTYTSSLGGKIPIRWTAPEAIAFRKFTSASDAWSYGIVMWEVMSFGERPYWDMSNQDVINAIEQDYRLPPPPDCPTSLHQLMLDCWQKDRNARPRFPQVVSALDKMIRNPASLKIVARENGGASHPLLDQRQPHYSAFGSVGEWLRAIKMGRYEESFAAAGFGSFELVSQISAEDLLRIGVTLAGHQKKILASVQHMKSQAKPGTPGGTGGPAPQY
Protocol: as §1, §2

VEGFR-1 = VEGFR-1 (Homo sapiens, UniProt P17948); test: Kinase-Glo Plus RTK selectivity assay, VEGFR-1; format: biochemical; conditions: 10 μM ATP
Sequence of VEGFR-1 (P17948 27-1338, species assumed): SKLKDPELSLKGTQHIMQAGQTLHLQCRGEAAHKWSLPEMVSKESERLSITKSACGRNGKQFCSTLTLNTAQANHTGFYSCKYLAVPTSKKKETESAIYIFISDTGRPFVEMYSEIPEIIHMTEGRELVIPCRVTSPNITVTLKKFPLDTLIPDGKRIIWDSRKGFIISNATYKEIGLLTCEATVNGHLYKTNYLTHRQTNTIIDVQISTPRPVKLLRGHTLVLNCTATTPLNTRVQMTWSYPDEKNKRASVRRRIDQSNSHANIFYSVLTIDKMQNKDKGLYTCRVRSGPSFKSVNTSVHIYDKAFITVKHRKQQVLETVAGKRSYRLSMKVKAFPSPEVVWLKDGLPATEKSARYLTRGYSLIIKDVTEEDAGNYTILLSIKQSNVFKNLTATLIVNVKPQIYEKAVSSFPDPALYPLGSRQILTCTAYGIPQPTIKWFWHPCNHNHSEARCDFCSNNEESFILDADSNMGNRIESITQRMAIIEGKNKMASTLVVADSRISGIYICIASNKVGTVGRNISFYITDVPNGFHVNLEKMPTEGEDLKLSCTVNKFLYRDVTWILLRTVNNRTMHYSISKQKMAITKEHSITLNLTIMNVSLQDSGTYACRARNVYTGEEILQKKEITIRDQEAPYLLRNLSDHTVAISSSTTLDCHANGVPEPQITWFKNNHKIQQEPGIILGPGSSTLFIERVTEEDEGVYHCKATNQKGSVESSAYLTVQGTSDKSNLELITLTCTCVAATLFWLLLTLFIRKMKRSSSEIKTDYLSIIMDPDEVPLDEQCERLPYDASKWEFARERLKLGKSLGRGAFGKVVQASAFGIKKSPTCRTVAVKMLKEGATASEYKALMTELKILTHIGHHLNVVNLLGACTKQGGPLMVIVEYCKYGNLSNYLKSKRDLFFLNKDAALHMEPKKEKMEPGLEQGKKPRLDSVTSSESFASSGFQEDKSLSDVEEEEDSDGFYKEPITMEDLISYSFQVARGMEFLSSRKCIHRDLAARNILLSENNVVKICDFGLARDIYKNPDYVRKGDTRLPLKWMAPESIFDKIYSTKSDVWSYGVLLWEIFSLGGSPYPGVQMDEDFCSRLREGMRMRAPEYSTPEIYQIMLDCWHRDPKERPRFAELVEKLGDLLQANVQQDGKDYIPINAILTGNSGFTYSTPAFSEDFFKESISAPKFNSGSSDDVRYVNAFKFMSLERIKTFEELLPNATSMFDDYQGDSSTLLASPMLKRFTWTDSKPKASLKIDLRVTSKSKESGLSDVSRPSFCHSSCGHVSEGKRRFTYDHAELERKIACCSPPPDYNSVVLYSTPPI
Protocol: (§3) A 50 μL reaction mixture contains 40 mM Tris, pH 7.4, 10 mM MgCl2, 0.1 mg/ml BSA, 1 mM DTT, 10 μM ATP, kinase and substrate (0.2 mg/mL Poly(Glu, Tyr)/10 μM ATP). The test compounds were diluted in 10% DMSO and 5 μL of the dilution was added to a 50 μL reaction so that the final concentration of DMSO is 1% in all of reactions. The assay was performed using Kinase-Glo Plus luminescence kinase assay kit. It measures kinase activity by quantitating the amount of ATP remaining in solution following a kinase reaction. The luminescent signal from the assay is correlated with the amount of ATP present and is inversely correlated with the amount of kinase activity. The IC50 values were calculated using nonlinear regression with normalized dose−response fit using Prism GraphPad software.

B-Raf = B-Raf (Homo sapiens, UniProt P15056); test: Kinase-Glo Plus RTK selectivity assay, B-Raf; format: biochemical; conditions: 10 μM ATP
Sequence of B-Raf (P15056 whole entry, species assumed): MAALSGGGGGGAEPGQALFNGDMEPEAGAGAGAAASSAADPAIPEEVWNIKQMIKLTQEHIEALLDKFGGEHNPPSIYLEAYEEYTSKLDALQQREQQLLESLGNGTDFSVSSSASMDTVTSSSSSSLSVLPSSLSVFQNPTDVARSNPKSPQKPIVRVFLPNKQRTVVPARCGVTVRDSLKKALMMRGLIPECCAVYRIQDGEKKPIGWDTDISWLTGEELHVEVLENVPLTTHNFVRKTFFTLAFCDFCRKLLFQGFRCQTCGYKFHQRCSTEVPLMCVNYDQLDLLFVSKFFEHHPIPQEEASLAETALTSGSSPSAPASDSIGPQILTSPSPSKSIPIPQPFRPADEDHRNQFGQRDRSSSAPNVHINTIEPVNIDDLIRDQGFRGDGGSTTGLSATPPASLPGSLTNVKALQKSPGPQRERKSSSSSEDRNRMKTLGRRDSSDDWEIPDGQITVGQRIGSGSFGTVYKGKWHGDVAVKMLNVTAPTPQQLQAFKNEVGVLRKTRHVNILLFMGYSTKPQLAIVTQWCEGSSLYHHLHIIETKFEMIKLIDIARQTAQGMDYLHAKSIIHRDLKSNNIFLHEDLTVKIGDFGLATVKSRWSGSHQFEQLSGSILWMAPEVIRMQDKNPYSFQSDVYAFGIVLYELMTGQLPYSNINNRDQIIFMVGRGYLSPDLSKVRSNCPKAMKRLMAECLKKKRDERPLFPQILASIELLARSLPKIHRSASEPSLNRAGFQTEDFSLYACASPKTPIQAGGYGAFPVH
Protocol: as §3

EA.hy926 cells = test: Apoptosis detection assay (annexin V-FITC/PI flow cytometry); format: cell-based, human; conditions: 48 h, negative control 10.35%
Protocol: A substantial and dose-dependent proapoptotic activity in HECs at various concentrations for 48 h was observed. The apoptotic EA.hy926 cells (10.35%) of negative control group were depicted in Figure 3A.
The cells were then harvested by trypsinization and washed twice with cold PBS. After centrifugation and removal of the supernatants, EA.hy926 cells were re-suspended in 400 μL of 1×binding buffer which was then added to 5 μL of annexin V-FITC and incubated at room temperature for 15 min. After adding 10 μL of PI the cells were incubated at room temperature for another 15 min in the dark. The stained cells were analyzed by a flow cytometer (BD Accuri C6).

[1] = test system: normal human liver cells (QSG7701); test: Cytotoxicity on normal cells, QSG7701; format: cell-based; conditions: MTT, 48 h, read-out: Anti-proliferative activity IC50, QSG7701 (normal cells)
Protocol: In order to determine the anti-angiogenic effect of these multi-target inhibitors, we evaluated their effect on HECs (EA.hy926) viability using cell counting kit-8 (CCK-8) method.
These RTKs play critical roles in the proliferation of various cancers. Therefore, RTKs inhibition generally translate well into anti-proliferation activity.
Exponentially growing cells were harvested and plated in 96-well plates at a concentration of 1×10^4 cells/well per well, and then were incubated at 37°C for 24 h. […] Subsequently, 22 μL fresh MTT (5 mg/mL) was added to each well and incubated at 37°C for 4 h. […] DMSO was added to each well after supernatant was discarded. Absorbance values were determined by a microplate reader (Bio-Rad Instruments) at 490 nm. The IC50 values were calculated according to inhibition ratios.

VEGFR-2 = test: Western blot of VEGFR-2 level and phosphorylation in EA.hy926 cells; format: cell-based, human
Protocol: The expression and phosphorylation of VEGFR-2 in EA.hy926 cells were assessed using western blot analysis with various antibodies. […] Cell lysates containing equal amounts of protein were separated by SDS polyacrylamide gel electrophoresis and transferred to polyvinylidene difluoride membranes. After being blocked in 5% nonfat milk in Tris-buffered saline with 0.1% Tween 20, pH 7.6, the membranes were incubated with the appropriate primary antibodies at 4°C overnight and then exposed to secondary antibodies for 2 h at room temperature. Immunoreactive proteins were visualized using the enhanced chemiluminescence system from Pierce Chemical.

Sequence of TIE-2 (Q02763 23-1124): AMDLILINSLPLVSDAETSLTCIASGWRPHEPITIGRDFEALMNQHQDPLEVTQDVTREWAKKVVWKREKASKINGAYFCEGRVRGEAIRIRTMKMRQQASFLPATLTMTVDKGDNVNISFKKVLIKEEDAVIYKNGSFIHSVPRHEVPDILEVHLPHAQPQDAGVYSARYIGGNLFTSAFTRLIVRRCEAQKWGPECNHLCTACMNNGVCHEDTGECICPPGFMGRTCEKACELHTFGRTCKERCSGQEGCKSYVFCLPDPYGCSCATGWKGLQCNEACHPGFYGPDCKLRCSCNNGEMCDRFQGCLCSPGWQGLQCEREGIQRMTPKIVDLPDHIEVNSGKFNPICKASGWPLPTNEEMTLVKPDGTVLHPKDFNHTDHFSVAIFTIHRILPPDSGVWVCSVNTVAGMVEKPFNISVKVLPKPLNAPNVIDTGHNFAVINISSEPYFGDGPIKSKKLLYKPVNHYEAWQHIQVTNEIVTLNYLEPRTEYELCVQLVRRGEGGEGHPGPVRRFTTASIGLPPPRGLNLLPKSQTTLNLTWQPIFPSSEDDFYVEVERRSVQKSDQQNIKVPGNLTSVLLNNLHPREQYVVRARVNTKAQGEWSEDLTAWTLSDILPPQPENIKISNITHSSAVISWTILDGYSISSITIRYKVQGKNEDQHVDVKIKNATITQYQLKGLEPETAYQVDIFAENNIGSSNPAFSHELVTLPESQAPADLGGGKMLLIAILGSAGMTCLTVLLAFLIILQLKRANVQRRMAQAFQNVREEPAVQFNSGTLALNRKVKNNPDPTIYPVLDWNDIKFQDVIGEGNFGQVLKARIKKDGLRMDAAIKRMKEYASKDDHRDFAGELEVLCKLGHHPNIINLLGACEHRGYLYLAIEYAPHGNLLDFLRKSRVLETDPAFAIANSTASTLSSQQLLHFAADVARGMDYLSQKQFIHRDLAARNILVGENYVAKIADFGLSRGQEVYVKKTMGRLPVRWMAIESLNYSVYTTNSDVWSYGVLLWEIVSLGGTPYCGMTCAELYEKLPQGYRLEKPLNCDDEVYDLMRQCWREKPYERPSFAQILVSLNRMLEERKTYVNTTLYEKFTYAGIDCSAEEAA

Compound: O=C(Nc1ccc(-c2ccc3c(=O)[nH]cnc3c2)cc1)Nc1ccc(F)c(F)c1 [QDAU5, 1-(3,4-difluorophenyl)-3-(4-(4-oxo-3,4-dihydroquinazolin-7-yl)phenyl)urea]
- IC50 (TIE-2): 8.87 nM
- IC50 (EphB4): 3.21 nM
- IC50 (VEGFR-1): 192 nM
- IC50 (B-Raf): > 500 nM
- percentage of early apoptotic cells (EA.hy926 cells; EA.hy926, 5 nM): 19.55%
- percentage of early apoptotic cells (EA.hy926 cells; EA.hy926, 20 nM): 28.35%
- percentage of early apoptotic cells (EA.hy926 cells; EA.hy926, 40 nM): 31.43%
- IC50 [1]: > 100000 nM
- VEGF-induced tyrosine phosphorylation of VEGFR-2 (VEGFR-2; EA.hy926, 48 h, then 50 ng/mL VEGF for 10 min): dose-dependently decreased
- level of VEGFR-2 (VEGFR-2; VEGF-stimulated EA.hy926, 48 h): moderately reduced
